The source of these data is a melting point compilation (Tetko et al.; mined from patent text by program, amines drawn as free bases though some values may be those of a salt).

A word on the melting point: it is the temperature of the solid-liquid transition.

`BrC(Br)=Cc1ccc(OCc2ccccc2)cc1`: the melting point was 97 to 98 °C.

Turning to `CCOC(=O)c1cnc2c3ccc(OC)cc3ccn2c1=O`, the melting point turned out to be 212 °C.

On to `CCOC(=O)c1cc2c(OC[C@@H](O)CN3CCC(c4ccc5ccccc5c4)CC3)cccc2[nH]1`, for which the melting point lay within 115 to 117 °C.

With `O=c1nc(-c2ccc(C(F)(F)F)cn2)sc2ccccc12`, the melting point is 207 °C.

As to `CCOC(=O)C1CS(=O)(=O)c2c(C(=O)c3ccccc3)cc(Cl)cc21` (centres undefined), the melting point fell in the range of 138 to 139 °C.

As for `O=[N+]([O-])c1cc([N+](=O)[O-])c(OCCO)cc1Cl`, the melting point was 98 to 100 °C.

With `CC1(C)CCC(C(=O)N2CCC[C@H]2C(=O)O)C1S` (some centres undefined), the melting point is 153 °C.

Turning to `CCCn1c(COCC)nc2c(N)nc3ccc(OCC4CCCO4)cc3c21` (centres undefined), the melting point was in the range of 178 to 179 °C.

`O=C(O)[C@H](Cc1cccc(OC(F)(F)C(F)F)c1)[C@@H](O)c1cccc(F)n1` (racemic) yielded a melting point of 103 to 104 °C.

The compound `O=c1c2c(N3CCNCC3)cc(Cl)cc2n(Cc2ccccc2)c(=O)n1Cc1ccccc1Br` returned a melting point of 94 to 97 °C.

Compound `CC(C)(C)c1cccc(C[C@@H]2N[C@@H](c3ccccc3)[C@@H](c3ccccc3)OC2=O)c1` displayed a melting point of 136 to 137 °C.

Consider `COCCOc1ccc(/C=C/COC(=O)NS(=O)(=O)NCCOC(C)C)c(Oc2ncc(C(F)(F)F)cc2Cl)c1`, for which the melting point fell in the range of 127 to 128 °C.

As for `CC(COc1ccc(O)c(C(N)=O)c1)N(Cc1ccccc1)CC(O)COc1ccc(OCC(N)=O)cc1` (centres undefined), the melting point is 145 to 149 °C.

The compound `COC12CC(C)(c3nc(-c4cncc(Br)c4)no3)CN(C)C1Cc1c(Br)n(C)c3cccc2c13` (centres undefined) showed a melting point of 167 to 172 °C.

For `CCOCc1nc2c(Cl)nc(C)c(C)c2n1NC1CCOCC1`, the melting point fell in the range of 137 to 139 °C.

With `CC/C=C/CNC(=O)[C@H]1N(C(=O)[C@@H](O)[C@H](Cc2ccccc2)NC(=O)c2cccc(O)c2C)CSC1(C)C`, the melting point was 113 to 115 °C.

As for `O=C(O)Cc1cccc(C(=O)c2cc3cc(C(=O)O)sc3s2)c1`, the melting point is 283 °C.

For `COC(=O)c1ccc(Cn2c(=O)c3cc(C(=O)NCc4cccc(OC)c4)sc3n(C)c2=O)cc1C`, the melting point is 175 to 177 °C.

Compound `Nc1c(C(=O)c2cccnc2)[nH]c2cc(Cl)ccc12` registered a melting point of 188 to 189 °C.

For the compound `CC(=O)N(C(C)=O)C1=C(N2CCN(Cc3cc(=O)[nH]c(=O)[nH]3)CC2)C(=O)c2ccccc2C1=O`, the melting point lay in the range of 152 to 154 °C.

Regarding `Cc1c(-c2ccc(O)cc2)sc(C#N)c1-c1cccc(O)c1`, the melting point is 220 to 222 °C.

Take `CC(=O)Nc1cc2c(cc1Oc1ccc(F)cc1F)C(=O)CC2c1ccccc1` (centres undefined): the melting point turned out to be 163 °C.

The compound `CC(C)(C)c1ccccc1N1CCN(C(=O)CC#N)CC1` displayed a melting point of 163 to 164 °C.

`O=C(O)C1CCCN(CCC#Cc2ccccc2)C1` (centres undefined) gave a melting point of 150 to 151 °C.

As for `O=C1COC(c2cccc(Cl)c2)c2ncccc21` (centres undefined), the melting point lay in the range of 158 to 160 °C.

Compound `N#CCCN(CCC#N)CCN(CCC#N)CCC#N` showed a melting point of 63 to 65 °C.

`COC(=O)c1ccccc1OS(=O)(=O)N(C)C` registered a melting point of 75.5 to 76.5 °C.

As to `CC(NC(Nc1cc(Cl)cc(Cl)c1)=C(C#N)S(=O)(=O)c1ccc(Cl)cc1)C(C)(C)C` (centres undefined), the melting point was in the range of 163 to 169 °C.

`ON=Cc1c(-c2ccccc2F)ccc2c1OCO2` yielded a melting point of 197 to 198 °C.

Consider `CNC(=O)c1ccc(CN2CCN(c3nc(C)c(C(C)=O)s3)C2=O)cc1`, for which the melting point lay within 173 to 175 °C.

As for `O=C(O)CCCCCCCSc1ccc(O)cc1`, the melting point lay within 94 to 95 °C.

For the compound `CCCCCCCCCc1cc(-c2ccccc2)c(OCC(=O)O)c(-c2ccccc2)c1`, the melting point is 63 to 65 °C.

Consider `CCCN(Cc1ccc(-c2ccccc2-c2nc(=O)s[nH]2)cc1)c1nc(C)ncc1C(=O)OCC`, for which the melting point was 173 to 175 °C.

In turn, `C[C@@H](Nc1c(NCc2ccc(Cl)cc2Cl)c(=O)c1=O)C(C)(C)C` returned a melting point of 235 to 239 °C.

With `COC(=O)c1cc(CCC2CNc3nc(NC(=O)C(C)(C)C)nc(O)c3C2)c[nH]1` (centres undefined), the melting point was in the range of 236 to 238 °C.

Take `COc1cc(OC)c2c(=O)[nH]c(-c3cccc(-c4ccc(C(=O)N(C)C)cc4)n3)nc2c1`: the melting point lay within 217 to 219 °C.

`CN1C(=O)C2C3C=CC(C3)C2(c2ccc3c(c2)OCO3)C1=O` (centres undefined) gave a melting point of 116 to 118 °C.

As for `O=C(Nc1ncc(C(F)(F)F)o1)C1c2ccc(F)cc2Oc2cc(F)ccc21`, the melting point came to 249 °C.

For the compound `COc1ccc2c(c1)CCC(=COC(=O)c1ccccc1)C2=O`, the melting point was in the range of 128 to 130 °C.

Regarding `Clc1cc2c(nn1)CCCCC2`, the melting point was in the range of 74 to 75 °C.

Take `Cc1nc2c(c3c1[nH]c1ccccc13)CCC(C)(C)C2`: the melting point was 241 to 243 °C.

`Cc1ncc([N+](=O)[O-])n1CCOS(C)(=O)=O` yielded a melting point of 152 to 153 °C.

`CCOC(=O)c1cn(-c2nc(NCc3ccc(OC)cc3)c(Cl)cc2F)c2c(Cl)c(F)c(F)cc2c1=O` gave a melting point of 168 to 171 °C.

As for `O=C(Nc1ccc2ccc(Oc3ccccc3)nc2n1)c1ccco1`, the melting point was determined as 167 °C.

With `COc1ccc(C(=O)c2ccc3nc(Cl)nc(-c4cccc(Cl)c4)c3c2)cc1`, the melting point amounted to 164 °C.

Compound `COc1cc(OC)c2c(=O)[nH]c(-c3cc(C)c(OCCN4CCN(C)CC4)c(C)c3)nc2c1` yielded a melting point of 180 to 182 °C.

In the case of `CCN(CC)c1nc(C)nc2scnc12`, the melting point was 41.6 to 43 °C.

In the case of `O=C(Cn1ccnc1)c1ccc(Cl)cn1`, the melting point is 122 to 129 °C.

On to `CCOC(=O)c1sc(NC(=O)c2cc(C(F)(F)F)cc(C(F)(F)F)c2)nc1C(F)(F)C(F)(F)F`, for which the melting point fell in the range of 154 to 155 °C.

In turn, `CCC(=O)NC(=O)Nc1ccc(OC)c(OC)c1` had a melting point of 193 to 197 °C.

In turn, `Cc1noc2nc(-c3ccccc3)cc(Cl)c12` yielded a melting point of 130 to 131 °C.

Compound `NC(=O)c1cc(-c2cccc(Cl)c2)sc1N` displayed a melting point of 190 to 192 °C.

The compound `O=C(O)c1ccc(S(=O)(=O)Nc2ccc(F)c(C(F)(F)F)c2)cc1` showed a melting point of 238 to 241 °C.

In the case of `c1ccc2sc(SSN3CCOCC3)nc2c1`, the melting point lay within 132 to 136 °C.

As for `COc1cccc2c(=O)cc(-c3ccccc3SCc3ccccc3)[nH]c12`, the melting point was 139 to 140 °C.

In turn, `COc1ccc(COCn2cc(Cl)cnc2=O)cc1` returned a melting point of 118 °C.

`COc1cc2c(c(OC(C)=O)c1)C1CCC3(C)C(OC)CCC3C1CC2` (centres undefined) gave a melting point of 81 to 83 °C.

Compound `CCOc1cc2c(cc1OC)C(c1ccc(C(=O)OC)cc1)=N[C@@H]1CCOC[C@H]21` displayed a melting point of 141 to 143 °C.

Consider `N#CCc1ccc(OCc2ccccc2)c([N+](=O)[O-])c1`, for which the melting point lay within 91 to 97 °C.

Take `O=[N+]([O-])c1ccc(Cl)c(N=C2NCCCN2)c1`: the melting point was 189 to 191 °C.

As to `CCOC(=O)c1cc2ccccc2n1CC1CC(=O)N(Cc2ccccc2)C1` (centres undefined), the melting point lay in the range of 93 to 94 °C.

Compound `Cc1cnc(C(=O)O)cc1C(c1cc(F)ccc1F)S(=O)(=O)c1ccc(Cl)cc1` (centres undefined) showed a melting point of 105 to 107 °C.

With `COC(=O)c1ccc2c(c1)CN(c1cc3c(cc1F)c(=O)c(C(=O)O)cn3C1CC1)C2`, the melting point is 279 to 285 °C.

`Fc1ccc(Cl)c(-c2c(Cl)nc3ncnn3c2Cl)c1`: the melting point amounted to 137 °C.

Compound `CC(=O)NC(=Cc1ccc(OC(C)=O)cc1)C(=O)O` displayed a melting point of 236 to 237 °C.

The compound `CC(C)(C)c1ccc(S(=O)(=O)Oc2ccc(C(c3ccc(OS(=O)(=O)c4ccc(C(C)(C)C)cc4)cc3)(C(F)(F)F)C(F)(F)F)cc2)cc1` yielded a melting point of 177 to 180 °C.

As for `NCC1COc2cc(Cl)cc(-c3ccc(C(F)(F)F)cc3C(F)(F)F)c2N1` (centres undefined), the melting point was found to be 98 °C.

Compound `Cc1ccc(C=C2C3=C(C=CC2(C)C)CC(C)CN3)cc1` (centres undefined) displayed a melting point of 153 °C.

Take `Cc1c(-c2ccc(F)cc2)nnn1CCC#Cc1ccccn1`: the melting point fell in the range of 130 to 131 °C.

Consider `CC(=O)Nc1ccc2nc3ccccc3c(-c3cc(C)ccc3C)c2c1`, for which the melting point lay in the range of 236 to 238 °C.

With `CCOC(=O)C(=O)CC(=O)C(=CN(C)C)c1ccccc1`, the melting point turned out to be 110 °C.

`Cc1c(C#N)sc(N=Nc2c(NCCO)nc(NCCO)c(C#N)c2C)c1C#N` came in with a melting point of 268 to 269 °C.

`CCC(CC)(CO)CCS(N)(=O)=O`: the melting point lay within 79 to 80 °C.

Compound `CCN1CCCC1CNC(=O)c1cccc(NC(=O)N2CCc3cc(SC)c(C(F)(F)F)cc32)c1` (centres undefined) displayed a melting point of 174 to 175 °C.

Compound `CCOC(=O)N1CCC(NC(=S)Nc2cccnc2NCc2ccco2)CC1` gave a melting point of 133 °C.

Compound `Cc1cccc2[nH]c(-c3ccccc3[N+](=O)[O-])nc12` registered a melting point of 167 to 168 °C.

As for `C[C@H](Nc1ncnc2[nH]cnc12)c1oc2ccc(F)cc2c(=O)c1-c1cccc(F)c1`, the melting point was in the range of 194 to 197 °C.

For `N#Cc1cccc(-n2ccc3cc(Cl)ccc32)c1`, the melting point was in the range of 120 to 122 °C.

Take `CCCc1cc(C(=O)OC)ccc1OCC(=O)CNc1cnn(C(C)C)c(=O)c1Cl`: the melting point is 133 °C.

`c1cnc2[nH]c(C3CCNC3)cc2c1` (centres undefined) came in with a melting point of 130 to 133 °C.

`CSc1cc(C(C)(C)C)n[nH]1` showed a melting point of 135 to 136 °C.

`CN(C)[C@@H]1Cc2cccc(O)c2C[C@H]1O` (relative stereo) yielded a melting point of 168 to 170 °C.

`C1=NC2=C(CCC1)CSC2` showed a melting point of 55 to 57 °C.

Compound `CN(CCCS(=O)CCCC(F)(F)C(F)(F)F)CCOc1ccc(C2=C(c3ccccc3)CCCc3ccccc32)cc1` (centres undefined) registered a melting point of 74 to 77 °C.

On to `CSc1nc2cc(Cl)c(S(N)(=O)=O)cc2[nH]1`, for which the melting point fell in the range of 253 to 254 °C.

Regarding `O=C(Nc1ccc(N2CCC(NC[C@H](O)COc3cccc4[nH]c5ccccc5c34)CC2)cc1)c1ccc2c(c1)OCO2`, the melting point is 217 to 223 °C.

Consider `Cc1c(C(=O)O)cnn1-c1nc(-c2cccc(Cl)c2)cs1`, for which the melting point was 258 °C.

In turn, `C=CCSC1=C(O)CC(C)(C)CC1=O` registered a melting point of 67.5 to 69.5 °C.

As for `CCCCCCCCCCCCCCCCCC(=O)c1ccc(C2=NC(C)(C)CO2)c(Cl)c1`, the melting point is 57 to 60 °C.
